What is called Emax is the maximal effect, on the per cent scale that the assay sets. As a reminder, the EC50 is the midpoint of the concentration-response curve.

Read-outs that look alike come from different tables or passages of the source.

The test addresses T1, androgen receptor (AR) (Homo sapiens, UniProt P10275).
T1 construct: transfecting C2C12 cells with a plasmid containing full-length AR; expressed in transfected cells; host or cells: mouse myoblastic C2C12 cells (ATCC CRL-1772), transiently transfected with AR-FL in pcDNA 3.1(+)
T1 sequence (P10275 1-920): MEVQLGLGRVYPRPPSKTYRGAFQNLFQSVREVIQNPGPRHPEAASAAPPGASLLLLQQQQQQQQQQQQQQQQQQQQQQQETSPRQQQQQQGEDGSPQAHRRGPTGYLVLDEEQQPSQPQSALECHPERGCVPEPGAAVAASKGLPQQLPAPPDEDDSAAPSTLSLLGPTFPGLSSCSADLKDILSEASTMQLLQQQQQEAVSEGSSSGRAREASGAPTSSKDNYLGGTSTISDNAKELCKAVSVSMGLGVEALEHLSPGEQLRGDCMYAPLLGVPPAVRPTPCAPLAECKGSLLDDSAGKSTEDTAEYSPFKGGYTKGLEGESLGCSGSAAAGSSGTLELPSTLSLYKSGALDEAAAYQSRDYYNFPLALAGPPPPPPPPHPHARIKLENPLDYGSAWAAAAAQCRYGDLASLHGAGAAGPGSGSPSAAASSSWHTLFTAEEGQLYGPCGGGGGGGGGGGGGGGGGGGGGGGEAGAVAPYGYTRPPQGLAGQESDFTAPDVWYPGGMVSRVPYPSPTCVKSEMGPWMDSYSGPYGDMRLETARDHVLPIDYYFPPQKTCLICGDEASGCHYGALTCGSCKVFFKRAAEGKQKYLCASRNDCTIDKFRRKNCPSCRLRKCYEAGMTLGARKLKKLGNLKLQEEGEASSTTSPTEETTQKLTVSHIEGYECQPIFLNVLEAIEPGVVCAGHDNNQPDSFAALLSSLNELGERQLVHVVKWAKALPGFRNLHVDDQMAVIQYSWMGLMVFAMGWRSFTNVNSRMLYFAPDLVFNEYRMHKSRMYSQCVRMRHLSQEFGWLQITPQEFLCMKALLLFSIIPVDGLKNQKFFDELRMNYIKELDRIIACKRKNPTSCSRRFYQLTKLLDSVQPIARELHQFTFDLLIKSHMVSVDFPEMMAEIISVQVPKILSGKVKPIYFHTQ
As to the kind of experiment: Test 1: androgen receptor transcriptional activation (2XIDR17-luciferase) assay in transfected C2C12 cells. In kind it is cell-based. The following applies: for Emax: C2C12, C2C12 cells, percentage activity relative to 1 μM DHT, read-out: Biological activity (C2C12 cell) Emax % (converted). As for the experimental part: A suitable assay to determine the ability of a ligand to transcriptionally activate androgen receptor (AR) is carried out using mouse myoblastic C2C12 cells. The assay involves transfecting C2C12 cells with a plasmid containing full-length AR along with an AR response element linked to luciferase (2XIDR17). The luminescence read-out at the end of the assay is measured using Victor 3 and is a direct measure of the transcriptional activity. The assay has been validated using the reference compound, BMS-564929, for which EC50 values have been reported in a similar set-up.
C2C12 cells were obtained from ATCC (Cat #CRL-1772) and maintained in DMEM modified to contain 4 mM L-glutamine, 4.5 g/L glucose, 1 mM sodium pyruvate and 1.5 g/L sodium bicarbonate and 10% FBS.
AR-FL in pcDNA 3.1(+) and 2XIDR17 in pGL4.26 plasmids prepared using Genelute plasmid miniprep kit from Sigma Cat #PLED35 Steadyglow Luciferase assay system Promega Cat #E2550
• C2C12 cells were seeded in a 96-well plate in DMEM (Dulbecco's Modified Eagle Medium) without phenol red and containing 10% CS-FBS (Charcoal-stripped Fetal Bovine Serum) at 8000 cells/well. • The next day, cells were transfected with an equimolar ratio of (Androgen Receptor-Full length) AR-FL and 2XIDR17-Luciferase at a total plasmid concentration of 200 ng/well using Lipofectamine 2000 following manufacturer's protocol. • For the transfection, 83 ng of AR-FL and 117 ng of 2XIDR17-Luciferase were in 12.5 μl of OptiMEM—Mix A. 0.4 μl of Lipofectamine 2000 was added to 12.5 μl of OptiMEM and incubated for 5 min at room temperature—Mix B. The two mixes A and B were mixed and incubated at room temperature for an additional fifteen minutes. An additional 50 μl of OptiMEM was added, gently mixed and this mixture was added to the cells in the 96-well plate. The above quantities are requirements per well of a 96-well plate. Master mixes were made for the entire plate, with proportional quantity of reagents being used. • 5 h after transfection, compounds were added to the wells in DMEM without phenol red and containing 10% CS-FBS, maintaining a final DMSO concentration of 0.5%. A typical dose response curve starts at 10 μM and includes a 7-point, log dilution, done in triplicates. • After overnight incubation with the compounds, 100 ul of working solution of Steadyglow reagent was added to the wells. • The plates were placed in a shaker for 15 min at the end of which the lysate containing luciferase was transferred to a white flat-bottom plate and read under a luminescence setting in Victor. • Background subtracted counts (Luminescence from DMSO control wells is considered the background) are used to calculate percentage activity, expressed relative to activity with 1 μM (Dihydrotestosterone) DHT (at least two sets of triplicates for 1 μM DHT are included per plate).
The EC50 curves for the compounds for 8 compound concentrations were fitted by the respective function using non-linear least-squares regression in Graphpad Prism 4.0 (Graphpad Software, San Diego, Calif., USA).

Setting [1] is: mouse myoblastic C2C12 cells transfected with full-length AR and 2XIDR17-luciferase, read-out: Biological activity (C2C12 cell) EC50.
[2] abbreviates: C2C12 cells, read-out: EC50 value in test 1.

Regarding `Cc1c(N2C(=O)N(CCc3ccncc3)C3(CCCC3)C2=O)ccc(C#N)c1Cl` [Example 8.2, 2-chloro-4-(2,4-dioxo-1-(2-(pyridin-4-yl)ethyl)-1,3-diazaspiro[4.4]nonan-3-yl)-3-methylbenzonitrile], the Emax was 70%. The EC50 under setting [1] was determined as 203 nM.

For `Cc1c(N2C(=O)N(C)C3(C=CCC3)C2=O)ccc(C#N)c1Cl` (centres unmarked) [1.5], the Emax is 66%.

Take `Cc1c(N2CC3(CCCC3O)OC2=O)ccc(C#N)c1Cl` (centres unmarked) [2-chloro-4-(6-hydroxy-2-oxo-1-oxa-3-azaspiro[4.4]nonan-3-yl)-3-methylbenzonitrile]: the EC50 under setting [2] is greater than 30000 nM.

On to `Cc1c(N2C(=O)N(C)C3(CCC(F)C3)C2=O)ccc(C#N)c1Cl` (centres unmarked) [6.1], for which the Emax is 99%.

Turning to `Cc1c(N2C(=O)N(CCC3CCOCC3)C3(CCCC3)C2=O)ccc(C#N)c1Cl` [2-chloro-4-(2,4-dioxo-1-(2-(tetrahydro-2H-pyran-4-yl)ethyl)-1,3-diazaspiro[4.4]nonan-3-yl)-3-methylbenzonitrile], under setting [2], the EC50 was greater than 30000 nM.

Regarding `Cc1c(N2C(=O)N(CCF)C3(CCCC3)C2=O)ccc(C#N)c1Cl` [Example 9.0, 2-chloro-4-(1-(2-fluoroethyl)-2,4-dioxo-1,3-diazaspiro[4.4]nonan-3-yl)-3-methylbenzonitrile], the Emax is 99%. Moreover, the EC50 (Biological activity (C2C12 cell) EC50 (nM), mouse myoblastic C2C12 cells transfected with full-length AR and 2XIDR17-luciferase) came to 45.4 nM.

As for `Cc1c(N2C(=O)N(CCCCC#N)C3(CCCC3)C2=O)ccc(C#N)c1Cl` [Example 9.6, 2-chloro-4-(1-(4-cyanobutyl)-2,4-dioxo-1,3-diazaspiro[4.4]nonan-3-yl)-3-methylbenzonitrile], the Emax was 90%. In addition, under setting [1], the EC50 was determined as 45 nM.

In the case of `Cc1ncc(CN2C(=O)N(c3ccc(C#N)c(Cl)c3C)C(=O)C23CCCC3)o1` [Example 8.10, 2-chloro-3-methyl-4-(1-((2-methyloxazol-5-yl)methyl)-2,4-dioxo-1,3-diazaspiro[4.4]nonan-3-yl)benzonitrile], for the setting “C2C12 cells, compound at 100 nM, relative to 1 μM DHT”, the “% Biological activity (C2C12 cell) 100 nM” value is on record as 20%. For the same compound, the “% Biological activity (C2C12 cell) 5 μM” value (C2C12 cells, compound at 5 μM, relative to 1 μM DHT) turned out to be 66%.

For `COC1N(c2ccc(C#N)c(Cl)c2C)C(=O)OC12CCCC2O` (centres unmarked) [Example 4.1, 2-chloro-4-(6-hydroxy-4-methoxy-2-oxo-1-oxa-3-azaspiro[4.4]nonan-3-yl)-3-methylbenzonitrile], the Emax was 40%. Further, the EC50 under setting [1] was found to be 2590 nM.

As to `Cc1c(N2C(=O)N(C)[C@]3(CCC[C@@H]3F)C2=O)ccc(C#N)c1Cl` [1.4(iv), 2-chloro-4-((5R,6S)-6-fluoro-1-methyl-2,4-dioxo-1,3-diazaspiro[4.4]nonan-3-yl)-3-methylbenzonitrile], under setting [1], the EC50 is 0.79 nM.

Regarding `Cc1c(N2C(=O)N(CCOCC(C)C)C3(CCCC3)C2=O)ccc(C#N)c1Cl` [2-chloro-4-(1-(2-isobutoxyethyl)-2,4-dioxo-1,3-diazaspiro[4.4]nonan-3-yl)-3-methylbenzonitrile], the EC50 under setting [2] was greater than 30000 nM.

Consider `CCN1C(=O)N(c2ccc(C#N)c(Cl)c2C)C(=O)C12CCCC2O` (centres unmarked) [1.3], for which the Emax is 79%.

Regarding `Cc1c(N2C(=O)N(C)C3(CCCC3O)C2=O)ccc(C#N)c1Cl` (centres unmarked) [1.0], the Emax is 80%.

For the compound `Cc1c(N2C(=O)N(C)C3(CCC(O)C3)C2=O)ccc(C#N)c1Cl` (centres unmarked) [Example 6.0, 2-chloro-4-(7-hydroxy-1-methyl-2,4-dioxo-1,3-diazaspiro[4.4]nonan-3-yl)-3-methylbenzonitrile], the Emax was 70%. The EC50 under setting [1] is 53 nM.

With `Cc1c(N2C(=O)N(C)C3(CCCC3)C2O)ccc(C#N)c1Cl` (centres unmarked) [2-chloro-4-(4-hydroxy-1-methyl-2-oxo-1,3-diazaspiro[4.4]nonan-3-yl)-3-methylbenzonitrile], the EC50 under setting [2] is greater than 30000 nM.

On to `Cc1cnc(CN2C(=O)N(c3ccc(C#N)c(Cl)c3C)C(=O)C23CCCC3)o1` [Example 8.7, 2-chloro-3-methyl-4-(1-((5-methyloxazol-2-yl)methyl)-2,4-dioxo-1,3-diazaspiro[4.4]nonan-3-yl)benzonitrile], for which the Emax is 112%. Besides, the EC50 under setting [1] turned out to be 8.9 nM.

The values are drawn from patent US20150299120A1, “Spirohydantoin compounds and their use as selective androgen receptor modulators” (NOVARTIS AG, priority 2012, published 2015).
